Assay results: patent US10376520B2, “Methods for the treatment of cardiovascular disorders” (Galapagos NV, priority 2015, dated 2019)

System: RA patients
Assay: Total cholesterol determination, Study 1 (RA patients with inadequate response to methotrexate, add-on to MTX)
Type: in vivo, human
Procedure: Double-blind, placebo-controlled add on study in subjects with moderately to severely active RA who have an inadequate response to methotrexate (MTX) (oral or parenteral).
595 subjects randomized to one of 6 dose regimens of Compound 1 (dosed as a [Compound 1:HCl:3H2O]) (3 dose levels administered either once or twice daily) or placebo on top of each subject's stable dose of MTX.
Compound 1 (dosed as a [Compound 1:HCl:3H2O]) is dosed for twelve weeks once daily (q.d.) (50 mg, 100 mg or 200 mg) or twice daily (b.i.d.) (25 mg, 50 mg or 100 mg); or placebo.
At Week 12, the subjects on placebo who have not achieved 20% improvement in swollen joint count (SJC66) and tender joint count (TJC68) are re-randomized automatically to receive Compound 1 (dosed as a [Compound 1:HCl:3H2O]) either at 100 mg q.d. or 50 mg b.i.d. doses in a blinded fashion; subjects on 50 mg q.d. who have not achieved 20% improvement in SJC66 and TJC68 will be assigned to 100 mg q.d. and subjects on 25 mg b.i.d. that have not achieved a 20% improvement in SJC66 and TJC68 will be assigned to 50 mg b.i.d. Subjects who switch treatment at week 12 are handled as if they discontinued at week 12 for the purpose of statistical analysis, whereas subjects in the other groups will maintain their randomized treatment until Week 24.
This method is based on the determination of Δ^4 cholestenone after enzymatic cleavage of the cholesterol ester by cholesterol esterase, conversion of cholesterol by cholesterol oxidase, and subsequent measurement by the Trinder reaction of the hydrogen peroxide formed (Allain et al., 1974).
Cholesterol esters are cleaved by the action of cholesterol esterase to yield free cholesterol and fatty acids. Cholesterol oxidase then catalyzes the oxidation of cholesterol to cholest-4-en-3-one and hydrogen peroxide. In the presence of peroxidase, the hydrogen peroxide formed effects the oxidative coupling of phenol and 4-aminophenazone to form a red quinone-imine dye. The color intensity of the dye formed is directly proportional to the cholesterol concentration. It is determined by measuring the increase in absorbance.
Human serum and plasma samples cholesterol determination was done on a Roche/Hitachi Cobas c 701/702 system which automatically calculate the analyte concentration of each sample.

[1] = Study 1 12 weeks results, 2 x 25 mg b.i.d., week 2
[2] = Study 1 12 weeks results, 2 x 25 mg b.i.d., week 4
[3] = Study 1 12 weeks results, 2 x 25 mg b.i.d., week 8
[4] = Study 1 12 weeks results, 2 x 25 mg b.i.d., week 12
[5] = Study 1 12 weeks results, 2 x 50 mg b.i.d., week 1
[6] = Study 1 12 weeks results, 2 x 50 mg b.i.d., week 2
[7] = Study 1 12 weeks results, 2 x 50 mg b.i.d., week 4
[8] = Study 1 12 weeks results, 2 x 50 mg b.i.d., week 8
[9] = Study 1 12 weeks results, 2 x 50 mg b.i.d., week 12
[10] = Study 1 12 weeks results, 2 x 100 mg b.i.d., week 1
[11] = Study 1 12 weeks results, 2 x 100 mg b.i.d., week 2
[12] = Study 1 12 weeks results, 2 x 100 mg b.i.d., week 4
[13] = Study 1 12 weeks results, 2 x 100 mg b.i.d., week 8
[14] = Study 1 12 weeks results, 2 x 100 mg b.i.d., week 12
[15] = Study 1 24 weeks results, continued 50 mg q.d., week 1
[16] = Study 1 24 weeks results, continued 50 mg q.d., week 2
[17] = Study 1 24 weeks results, continued 50 mg q.d., week 4
[18] = Study 1 24 weeks results, continued 50 mg q.d., week 8
[19] = Study 1 24 weeks results, continued 50 mg q.d., week 12
[20] = Study 1 24 weeks results, continued 50 mg q.d., week 16
[21] = Study 1 24 weeks results, continued 50 mg q.d., week 20
[22] = Study 1 24 weeks results, continued 50 mg q.d., week 24

## O=C(Nc1nc2cccc(-c3ccc(CN4CCS(=O)(=O)CC4)cc3)n2n1)C1CC1 [Compound 1, cyclopropanecarboxylic acid {5-[4-(1,1-dioxo-thiomorpholin-4-ylmethyl)-phenyl]-[1,2,4]triazolo[1,5-a]pyridin-2yl}-amide]
Study 1 12 weeks results, 2 x 25 mg b.i.d., week 1
  [total cholesterol] Mean CFB: 0.1 mmol/L
[1]
  [Total cholesterol] Median CFB: 0.10 mmol/L
  [total cholesterol] Mean CFB: 0.1 mmol/L
[2]
  [Total cholesterol] Median CFB: 0.05 mmol/L
  [total cholesterol] Mean CFB: 0.1 mmol/L
[3]
  [Total cholesterol] Median CFB: 0.05 mmol/L
  [total cholesterol] Mean CFB: 0.1 mmol/L
[4]
  [Total cholesterol] Median CFB: 0.13 mmol/L
  [total cholesterol] Mean CFB: 0.2 mmol/L
[5]
  [Total cholesterol] Median CFB: 0.21 mmol/L
  [total cholesterol] Mean CFB: 0.1 mmol/L
[6]
  [Total cholesterol] Median CFB: 0.18 mmol/L
  [total cholesterol] Mean CFB: 0.1 mmol/L
[7]
  [Total cholesterol] Median CFB: 0.28 mmol/L
  [total cholesterol] Mean CFB: 0.3 mmol/L
[8]
  [Total cholesterol] Median CFB: 0.22 mmol/L
  [total cholesterol] Mean CFB: 0.2 mmol/L
[9]
  [Total cholesterol] Median CFB: 0.23 mmol/L
  [total cholesterol] Mean CFB: 0.2 mmol/L
[10]
  [Total cholesterol] Median CFB: 0.28 mmol/L
  [total cholesterol] Mean CFB: 0.3 mmol/L
[11]
  [Total cholesterol] Median CFB: 0.31 mmol/L
  [total cholesterol] Mean CFB: 0.4 mmol/L
[12]
  [Total cholesterol] Median CFB: 0.45 mmol/L
  [total cholesterol] Mean CFB: 0.4 mmol/L
[13]
  [Total cholesterol] Median CFB: 0.55 mmol/L
  [total cholesterol] Mean CFB: 0.6 mmol/L
[14]
  [Total cholesterol] Median CFB: 0.80 mmol/L
  [total cholesterol] Mean CFB: 0.6 mmol/L
Study 1 24 weeks results, continued 25 mg b.i.d, week 1
  [total cholesterol] Mean CFB: 0.11 mmol/L
Study 1 24 weeks results, continued 25 mg b.i.d, week 2
  [total cholesterol] Mean CFB: 0.12 mmol/L
Study 1 24 weeks results, continued 25 mg b.i.d, week 4
  [total cholesterol] Mean CFB: 0.14 mmol/L
Study 1 24 weeks results, continued 25 mg b.i.d, week 8
  [total cholesterol] Mean CFB: 0.15 mmol/L
Study 1 24 weeks results, continued 25 mg b.i.d, week 12
  [total cholesterol] Mean CFB: 0.26 mmol/L
Study 1 24 weeks results, continued 25 mg b.i.d, week 16
  [total cholesterol] Mean CFB: 0.20 mmol/L
Study 1 24 weeks results, continued 25 mg b.i.d, week 20
  [total cholesterol] Mean CFB: 0.27 mmol/L
Study 1 24 weeks results, continued 25 mg b.i.d, week 24
  [total cholesterol] Mean CFB: 0.24 mmol/L
Study 1 24 weeks results, continued 50 mg b.i.d., week 1
  [total cholesterol] Mean CFB: 0.15 mmol/L
Study 1 24 weeks results, continued 50 mg b.i.d., week 2
  [total cholesterol] Mean CFB: 0.14 mmol/L
Study 1 24 weeks results, continued 50 mg b.i.d., week 4
  [total cholesterol] Mean CFB: 0.28 mmol/L
Study 1 24 weeks results, continued 50 mg b.i.d., week 8
  [total cholesterol] Mean CFB: 0.21 mmol/L
Study 1 24 weeks results, continued 50 mg b.i.d., week 12
  [total cholesterol] Mean CFB: 0.23 mmol/L
Study 1 24 weeks results, continued 50 mg b.i.d., week 16
  [total cholesterol] Mean CFB: 0.24 mmol/L
Study 1 24 weeks results, continued 50 mg b.i.d., week 20
  [total cholesterol] Mean CFB: 0.32 mmol/L
Study 1 24 weeks results, continued 50 mg b.i.d., week 24
  [total cholesterol] Mean CFB: 0.34 mmol/L
[15]
  [Total cholesterol] Median CFB: 0.00 mmol/L
  [total cholesterol] Mean CFB: 0.03 mmol/L
[16]
  [Total cholesterol] Median CFB: 0.00 mmol/L
  [total cholesterol] Mean CFB: -0.01 mmol/L
[17]
  [Total cholesterol] Median CFB: 0.05 mmol/L
  [total cholesterol] Mean CFB: 0.05 mmol/L
[18]
  [Total cholesterol] Median CFB: 0.20 mmol/L
  [total cholesterol] Mean CFB: 0.14 mmol/L
[19]
  [Total cholesterol] Median CFB: 0.25 mmol/L
  [total cholesterol] Mean CFB: 0.24 mmol/L
[20]
  [Total cholesterol] Median CFB: 0.25 mmol/L
  [total cholesterol] Mean CFB: 0.21 mmol/L
[21]
  [Total cholesterol] Median CFB: 0.25 mmol/L
  [total cholesterol] Mean CFB: 0.20 mmol/L
[22]
  [Total cholesterol] Median CFB: 0.30 mmol/L
  [total cholesterol] Mean CFB: 0.28 mmol/L
Study 1 24 weeks results, continued 100 mg b.i.d., week 1
  [total cholesterol] Mean CFB: 0.30 mmol/L
